Measurements taken from PMC2132544 (The Journal of Cell Biology, 1997).
Where two headings read alike, the source gives them in different places.

How the values were obtained:
[1] = system: Shigella flexneri intracellular motility in PtK2 cells; details: cited from earlier work
[2] = system: Shigella flexneri intracellular motility in PtK2 cells; format: cell-based
[3] = microinjected peptide, ref Zeile et al. (1996)

## FEFPPPPTDE [ActA ABM-1 peptide]
[1]; [3]
  effect on Shigella motility: arrested intracellular Shigella motility

## Gly-Pro-Pro-Pro-Pro Pro [ABM-2 peptide]
[1]; [3]
  effect on Shigella motility: blocks Shigella actin-based motility

## poly- L-proline [poly-L-proline]
[1]; poly-L-proline intracellular concentration 1 μM, ref Zeile et al., 1996
  effect on Shigella motility: failed to inhibit motility

B1: full-length vinculin: Full-length 120-kD human platelet vinculin (protein, UniProt P18206 1-1134, looked up)
Vinculin: MPVFHTRTIESILEPVAQQISHLVIMHEEGEVDGKAIPDLTAPVAAVQAAVSNLVRVGKETVQTTEDQILKRDMPPAFIKVENACTKLVQAAQMLQSDPYSVPARDYLIDGSRGILSGTSDLLLTFDEAEVRKIIRVCKGILEYLTVAEVVETMEDLVTYTKNLGPGMTKMAKMIDERQQELTHQEHRVMLVNSMNTVKELLPVLISAMKIFVTTKNSKNQGIEEALKNRNFTVEKMSAEINEIIRVLQLTSWDEDAWASKDTEAMKRALASIDSKLNQAKGWLRDPSASPGDAGEQAIRQILDEAGKVGELCAGKERREILGTCKMLGQMTDQVADLRARGQGSSPVAMQKAQQVSQGLDVLTAKVENAARKLEAMTNSKQSIAKKIDAAQNWLADPNGGPEGEEQIRGALAEARKIAELCDDPKERDDILRSLGEISALTSKLADLRRQGKGDSPEARALAKQVATALQNLQTKTNRAVANSRPAKAAVHLEGKIEQAQRWIDNPTVDDRGVGQAAIRGLVAEGHRLANVMMGPYRQDLLAKCDRVDQLTAQLADLAARGEGESPQARALASQLQDSLKDLKARMQEAMTQEVSDVFSDTTTPIKLLAVAATAPPDAPNREEVFDERAANFENHSGKLGATAEKAAAVGTANKSTVEGIQASVKTARELTPQVVSAARILLRNPGNQAAYEHFETMKNQWIDNVEKMTGLVDEAIDTKSLLDASEEAIKKDLDKCKVAMANIQPQMLVAGATSIARRANRILLVAKREVENSEDPKFREAVKAASDELSKTISPMVMDAKAVAGNISDPGLQKSFLDSGYRILGAVAKVREAFQPQEPDFPPPPPDLEQLRLTDELAPPKPPLPEGEVPPPRPPPPEEKDEEFPEQKAGEVINQPMMMAARQLHDEARKWSSKPGIPAAEVGIGVVAEADAADAAGFPVPPDMEDDYEPELLLMPSNQPVNQPILAAAQSLHREATKWSSKGNDIIAAAKRMALLMAEMSRLVRGGSGTKRALIQCAKDIAKASDEVTRLAKEVAKQCTDKRIRTNLLQVCERIPTISTQLKILSTVKATMLGRTNISDEESEQATEMLVHNAQNLMQSVKETVREAEAASIKIRTDAGFTLRWVRKTPWYQ
[2]; estimated intracellular 0.12 μM (identical to p90)
  effect on bacterial migration speeds: failed to cause any significant change
[2]; needle concentration 2.2 μM, estimated intracellular concentration 0.22 μM
  effect on Shigella intracellular motility: failed to accelerate
